In ChEMBL document CHEMBL4406816, “Role of sulphur-heterocycles in medicinal chemistry: An update” (Eur J Med Chem, 2019):
≈ marks a conversion by molar mass, not a printed value.

System: Mycobacterium tuberculosis variant bovis
Assay: Antitubercular activity against Mycobacterium bovis
Type: functional

Work on `Fc1ccc(-c2cn(Cc3csc(-c4ccccc4)n3)nn2)cc1` yielded an MIC of 1.69 µg/mL (≈ 5.02 µM).
